In patent publication US20220168201A1, “USE OF DIANHYDROHEXITOL FOR PRESERVING COSMETIC PREPARATIONS” (ROQUETTE FRERES, priority 2019, published 2022):

Columns and labels:
Corynebacterium xerosis = assay: In-vitro effect on microbial strains: population count over 28 days, Corynebacterium xerosis; type: cell-based; details: for Number of colony-forming strains after: 24 h / Number of colony-forming strains after: 7 days / Number of colony-forming strains after: 14 days / Number of colony-forming strains after: 21 days / Number of colony-forming strains after: 28 days: inoculum 3.2 × 10^5, 22° C.
Experimental: (§1) The samples are prepared under sterile conditions and deposited in microplates (2-ml wells) with the concentrations hereunder. Two analysis controls were carried out: • a positive control corresponding to 0.5% Phenonip®; • a negative control consisting of 0.85% physiological saline solution. Samples and controls are contaminated with three bacterial strains, namely Staphylococcus epidermidis, Corynebacterium xerosis, and Propionobacterium acnes, at a rate of approximately […] to 4.15×10^5 colony-forming units per milliliter, denoted cfu/ml; and a fungal strain, namely Malassezia furfur, at a rate of approximately 1.50×104 to 3.80×10^4 cfu/ml. After contamination, the samples are carefully mixed by suction and discharge cycles in order to ensure a uniform distribution of the microorganism. The whole is incubated at 22° C. during 28 days. The microbial population is sampled and counted at 24 hours and 7, 14, 21 and 28 days for each microbial strain. The contaminated samples are collected and then deposited in serial dilutions in microtiter plates, in the presence of culture medium, which is a saline solution with 0.85% sodium chloride, and a dehydrogenase activity indicator reagent, which is 2,3,5-triphenyltetrazolium chloride (denoted TTC). The results are presented in the following pages with the variation of the microbial population over the 28 days of study, for the tested microbial strain. The measurements of microbial populations in the samples collected at each time, are carried out according to the following microtiter method, for one sample collection. In the 96 wells with a volume of 250 μL of a microtiter plate, 20 μL of the collected sample are diluted by a factor of 10 by dispersion in 180 μL of Letheen broth (Difco, ref. 268110) containing 1.5% of Tween 80 (Sigma, ref. […]) and TTC (Sigma, ref. […]). The microplate is incubated for 48 hours at 32.5° C., and the growth of the microorganisms is monitored by the color change, from colorless to red/pink. The highest reciprocal dilution indicating a growth makes it possible to determine the log number of each microorganism at each time. The measurements of microbial populations taken at each collection time are expressed as colony forming units/ml.

Malassezia furfur = assay: In-vitro effect on microbial strains: population count over 28 days, Malassezia furfur; type: cell-based; details: for Number of colony-forming strains after: 24 h / Number of colony-forming strains after: 7 days / Number of colony-forming strains after: 14 days / Number of colony-forming strains after: 21 days / Number of colony-forming strains after: 28 days: inoculum 1.5 × 10^4, 22° C.
Experimental: as §1

Candida albicans = details: U.S. Pat. No. 9,295,626, col. 27, Table 2; cited from earlier work
Staphylococcus aureus = details: U.S. Pat. No. 9,295,626, col. 27, Table 2; cited from earlier work
Propionobacterium acnes = assay: In-vitro effect on microbial strains: population count over 28 days, Propionobacterium acnes; type: cell-based; details: for Number of colony-forming strains after: 24 h / Number of colony-forming strains after: 7 days / Number of colony-forming strains after: 14 days / Number of colony-forming strains after: 21 days / Number of colony-forming strains after: 28 days: inoculum 3.98 × 10^5, 22° C.
Experimental: as §1

[1] = system: Staphylococcus epidermidis; assay: In-vitro effect on microbial strains: population count over 28 days, Staphylococcus epidermidis; type: cell-based; details: for Number of colony-forming strains after: 24 h / Number of colony-forming strains after: 7 days / Number of colony-forming strains after: 14 days / Number of colony-forming strains after: 21 days / Number of colony-forming strains after: 28 days: inoculum 1.43 × 10^5, 22° C.
Experimental: as §1

Aspergillus brasiliensis = details: U.S. Pat. No. 9,295,626, col. 27, Table 2; cited from earlier work
[2] = after 24 hours, the three doses tested (1%, 5%, 9%)
[3] = after 24 hours, doses 1%, 5%, 9%

O[C@@H]1CO[C@H]2[C@@H]1OC[C@@H]2O [isosorbide, 1,4-3,6-dianhydrosorbitol]
1 × 10^2 colony forming units/ml: Number of colony-forming strains after: 24 h (Corynebacterium xerosis; isosorbide dose 5%)
0 colony forming units/ml: Number of colony-forming strains after: 7 days (Corynebacterium xerosis; isosorbide dose 1%) | Number of colony-forming strains after: 14 days (Corynebacterium xerosis; isosorbide dose 1%) | Number of colony-forming strains after: 21 days (Corynebacterium xerosis; isosorbide dose 1%) | Number of colony-forming strains after: 28 days (Corynebacterium xerosis; isosorbide dose 1%) | Number of colony-forming strains after: 7 days (Corynebacterium xerosis; isosorbide dose 5%) | Number of colony-forming strains after: 14 days (Corynebacterium xerosis; isosorbide dose 5%) | Number of colony-forming strains after: 21 days (Corynebacterium xerosis; isosorbide dose 5%) | Number of colony-forming strains after: 28 days (Corynebacterium xerosis; isosorbide dose 5%) | Number of colony-forming strains after: 7 days (Corynebacterium xerosis; isosorbide dose 9%) | Number of colony-forming strains after: 14 days (Corynebacterium xerosis; isosorbide dose 9%) | Number of colony-forming strains after: 21 days (Corynebacterium xerosis; isosorbide dose 9%) | Number of colony-forming strains after: 28 days (Corynebacterium xerosis; isosorbide dose 9%) | Number of colony-forming strains after: 24 h (Malassezia furfur; isosorbide dose 1%) | Number of colony-forming strains after: 7 days (Malassezia furfur; isosorbide dose 1%) | Number of colony-forming strains after: 14 days (Malassezia furfur; isosorbide dose 1%) | Number of colony-forming strains after: 21 days (Malassezia furfur; isosorbide dose 1%) | Number of colony-forming strains after: 28 days (Malassezia furfur; isosorbide dose 1%) | Number of colony-forming strains after: 24 h (Malassezia furfur; isosorbide dose 5%) | Number of colony-forming strains after: 7 days (Malassezia furfur; isosorbide dose 5%) | Number of colony-forming strains after: 14 days (Malassezia furfur; isosorbide dose 5%) | Number of colony-forming strains after: 21 days (Malassezia furfur; isosorbide dose 5%) | Number of colony-forming strains after: 28 days (Malassezia furfur; isosorbide dose 5%) | Number of colony-forming strains after: 24 h (Malassezia furfur; isosorbide dose 9%) | Number of colony-forming strains after: 7 days (Malassezia furfur; isosorbide dose 9%) | Number of colony-forming strains after: 14 days (Malassezia furfur; isosorbide dose 9%) | Number of colony-forming strains after: 21 days (Malassezia furfur; isosorbide dose 9%) | Number of colony-forming strains after: 28 days (Malassezia furfur; isosorbide dose 9%) | Number of colony-forming strains after: 24 h (Propionobacterium acnes; isosorbide dose 1%) | Number of colony-forming strains after: 7 days (Propionobacterium acnes; isosorbide dose 1%) | Number of colony-forming strains after: 14 days (Propionobacterium acnes; isosorbide dose 1%) | Number of colony-forming strains after: 21 days (Propionobacterium acnes; isosorbide dose 1%) | Number of colony-forming strains after: 28 days (Propionobacterium acnes; isosorbide dose 1%) | Number of colony-forming strains after: 24 h (Propionobacterium acnes; isosorbide dose 5%) | Number of colony-forming strains after: 7 days (Propionobacterium acnes; isosorbide dose 5%) | Number of colony-forming strains after: 14 days (Propionobacterium acnes; isosorbide dose 5%) | Number of colony-forming strains after: 21 days (Propionobacterium acnes; isosorbide dose 5%) | Number of colony-forming strains after: 28 days (Propionobacterium acnes; isosorbide dose 5%) | Number of colony-forming strains after: 24 h (Propionobacterium acnes; isosorbide dose 9%) | Number of colony-forming strains after: 7 days (Propionobacterium acnes; isosorbide dose 9%) | Number of colony-forming strains after: 14 days (Propionobacterium acnes; isosorbide dose 9%) | Number of colony-forming strains after: 21 days (Propionobacterium acnes; isosorbide dose 9%) | Number of colony-forming strains after: 28 days (Propionobacterium acnes; isosorbide dose 9%) | Number of colony-forming strains after: 7 days ([1]; isosorbide dose 1%) | Number of colony-forming strains after: 14 days ([1]; isosorbide dose 1%) | Number of colony-forming strains after: 21 days ([1]; isosorbide dose 1%) | Number of colony-forming strains after: 28 days ([1]; isosorbide dose 1%) | Number of colony-forming strains after: 7 days ([1]; isosorbide dose 5%) | Number of colony-forming strains after: 14 days ([1]; isosorbide dose 5%) | Number of colony-forming strains after: 21 days ([1]; isosorbide dose 5%) | Number of colony-forming strains after: 28 days ([1]; isosorbide dose 5%) | Number of colony-forming strains after: 7 days ([1]; isosorbide dose 9%) | Number of colony-forming strains after: 14 days ([1]; isosorbide dose 9%) | Number of colony-forming strains after: 21 days ([1]; isosorbide dose 9%) | Number of colony-forming strains after: 28 days ([1]; isosorbide dose 9%)
4 × 10^3 colony forming units/ml: Number of colony-forming strains after: 24 h ([1]; isosorbide dose 1%)
at least 2 log 10: reduction of the number of colony-forming strains [1, 2]
4 × 10^2 colony forming units/ml: Number of colony-forming strains after: 24 h (Corynebacterium xerosis; isosorbide dose 1%)
weak bactericide: effect on the strain in words ([1]; summary of Table 4)
1 × 10^3 colony forming units/ml: Number of colony-forming strains after: 24 h ([1]; isosorbide dose 5%)
10%: minimum inhibitory concentration (Candida albicans) | minimum inhibitory concentration (Staphylococcus aureus) | minimum inhibitory concentration (Aspergillus brasiliensis)
moderate bactericide: effect on the strain in words (Corynebacterium xerosis; summary of Table 3)
bactericide: effect on the strain in words (Malassezia furfur; summary of Table 2) | effect on the strain in words (Propionobacterium acnes; summary of Table 1)
at least 3 log 10: reduction of the number of colony-forming strains (Corynebacterium xerosis; [2])
7 × 10^2 colony forming units/ml: Number of colony-forming strains after: 24 h ([1]; isosorbide dose 9%)
no colony-forming strain is observed: colony-forming strains observed (Malassezia furfur; [3]) | colony-forming strains observed (Propionobacterium acnes; [3])
no more colony-forming strains: colony-forming strains observed (Corynebacterium xerosis; after 7 days) | colony-forming strains observed ([1]; after 7 days)
